Experimental data as given in patent US4175081A, “5-Substituted thiadiazole ureas” (priority 1977, dated 1979).

Legend:
Assay in all cases: Post-emergence herbicide test
[1] = test system: Barnyard grass (BG); assay type: in vivo; conditions: Echinochloa crus-galli, 336 h, 4 lb/acre, two weeks after treatment
Protocol: Barnyard grass (BG)--Echinochloa crus-galli
(§1) All crop and weed species were planted individually in 3' plastic pots containing potting soil. Four seeds each of corn, cotton, and snapbeans were seeded to a depth equal to the diameter of the seed. All other species were surface seeded and sprinkled with screened soil in an amount sufficient to cover the seed. Immediately after planting, all pots were watered by sub-irrigation in greenhouse trays. Pots for the pre-emergence phase were seeded one day before treatment.
(§2) Planting dates for the post-emergence phase were varied so that all seedlings would reach the desired stage of development simultaneously. The proper stage of seedling development for treatment in the post-emergence phase is as follows:
(§3) Compounds were tested at rates of application equivalent to 8 lbs. of actual compound per acre in a spray volume of 38 gallons per acre. Spray hood constants required to deliver the above volume are as follows:
(§4) Formulations for spray applications were prepared in 50 ml volumes with the following three components:
(§5) Formulations for the 4 lbs/acre rate were prepared by adjusting the amount of active ingredient accordingly.
(§6) Spray applications were made in a hood containing a removable belt and fixed spray nozzle. For passage through the spray hood, one pot of each specie (pre-emergence phase) was placed on the rear half of the flat. Treatments were removed to the greenhouse after spraying. Watering during the observation period was done only by sub-irrigation.
(§7) Two weeks after treatment, pre- and post-emergence injury or control was visually rated, and the results were as shown in the following tables. Pre-emergence data are provided in TABLE III and post-emergence data are provided in TABLE IV, for compounds having the formula illustrated in TABLE I. Correspondingly, pre-emergence and post-emergence data, respectively, are set forth in TABLES V AND VI, for compounds having the formula illustrated in TABLE II.

[2] = test system: Johnson grass (JG); assay type: in vivo, Sorgum helepense; conditions: Sorghum halepense, 336 h, 4 lb/acre, two weeks after treatment
Protocol: Johnson grass (JG)--Sorgum helepense
as §1, §2, §3, §4, §5, §6, §7

[3] = test system: Crabgrass (CG); assay type: in vivo, Digitaria sanquinalis; conditions: Digitaria sanguinalis, post-emergence, 336 h; 4 lb/acre; two weeks after treatment
Protocol: Crabgrass (CG)--Digitaria sanquinalis
as §1, §2
(§8) Spray hood constants required to deliver the above volume are as follows:
(§9) Formulations for spray applications were prepared in 50 ml volumes with the following three components: […]
as §6, §7

[4] = test system: Turnip (TP); assay type: in vivo, Brassica sp.; conditions: Brassica rapa, post-emergence, 336 h, two weeks after treatment; for pest or weed control at 2241.7 g/ha: 2 lb/acre; for pest or weed control at 4483.4 g/ha: 4 lb/acre
Protocol: Turnip (TP)--Brassica sp.
as §1, §2
(§10) Pigweed and turnips: 1 or 2 true leaves above visible cotyledons.
as §8, §9, §6, §7

[5] = test system: Bean (BN); assay type: in vivo, Phaseolus vulgaris var. Black Valentine; conditions: Phaseolus vulgaris, post-emergence, 336 h; 4 lb/acre; two weeks after treatment
Protocol: Bean (BN)--Phaseolus vulgaris var. Black Valentine
as §1, §2
Beans: primary leaves expanded, growing point at primary leaf nodes.
as §8, §4, §5, §6, §7

[6] = test system: Cotton (CT); assay type: in vivo, Gossypium hirsutum var. DPL smooth leaf; conditions: Gossypium hirsutum, post-emergence, 336 h; 4 lb/acre; two weeks after treatment
Protocol: Cotton (CT)--Gossypium hirsutum var. DPL smooth leaf
as §1, §2
Cotton: first true leaf 1' in length; expanded cotyledons.
as §8, §4, §5, §6, §7

[7] = test system: Amaranth pigweed (PW); assay type: in vivo, Amaranthus retroflexus; conditions: 336 h, two weeks after treatment; for pest or weed control at 2241.7 g/ha: 2 lb/acre; for pest or weed control at 4483.4 g/ha: 4 lb/acre
Protocol: Amaranth pigweed (PW)--Amaranthus retroflexus
as §1, §2, §10, §3, §4, §5, §6, §7

[8] = test system: Corn (CN); assay type: in vivo; conditions: Zea mays, 336 h, 4 lb/acre, two weeks after treatment
Protocol: as §1, §2, §3, §4, §5, §6, §7

CCC(C)=CCSc1nnc(NC(=O)NC)s1 [Example 50]
pest or weed control at 4483.4 g/ha [1]: 20% | pest or weed control at 4483.4 g/ha [2]: 30% | pest or weed control at 4483.4 g/ha [3]: 50% | pest or weed control at 2241.7 g/ha [4]: 60% | pest or weed control at 4483.4 g/ha [4]: 80% | pest or weed control at 4483.4 g/ha [5]: 100% | pest or weed control at 4483.4 g/ha [6]: 80% | pest or weed control at 2241.7 g/ha [7]: 90% | pest or weed control at 4483.4 g/ha [7]: 90% | pest or weed control at 4483.4 g/ha [8]: 30%

CNC(=O)Nc1nnc(SCCC(C)C)s1 [Example 51]
pest or weed control at 4483.4 g/ha [1]: 70% | pest or weed control at 4483.4 g/ha [2]: 40% | pest or weed control at 4483.4 g/ha [3]: 60% | pest or weed control at 2241.7 g/ha [4]: 80% | pest or weed control at 4483.4 g/ha [4]: 90% | pest or weed control at 4483.4 g/ha [5]: 100% | pest or weed control at 4483.4 g/ha [6]: 100% | pest or weed control at 2241.7 g/ha [7]: 90% | pest or weed control at 4483.4 g/ha [7]: 90% | pest or weed control at 4483.4 g/ha [8]: 50%

CNC(=O)Nc1nnc(SCCC#N)s1 [Example 52]
pest or weed control at 4483.4 g/ha [1]: 20% | pest or weed control at 4483.4 g/ha [2]: 20% | pest or weed control at 4483.4 g/ha [3]: 70% | pest or weed control at 4483.4 g/ha [4]: 80% | pest or weed control at 4483.4 g/ha [5]: 100% | pest or weed control at 4483.4 g/ha [6]: 100% | pest or weed control at 4483.4 g/ha [7]: 80% | pest or weed control at 4483.4 g/ha [8]: 100%

CNC(=O)Nc1nnc(SCCc2ccccc2)s1 [Example 53]
pest or weed control at 4483.4 g/ha [1]: 20% | pest or weed control at 4483.4 g/ha [2]: 30% | pest or weed control at 4483.4 g/ha [3]: 60% | pest or weed control at 2241.7 g/ha [4]: 70% | pest or weed control at 4483.4 g/ha [4]: 90% | pest or weed control at 4483.4 g/ha [5]: 100% | pest or weed control at 4483.4 g/ha [6]: 100% | pest or weed control at 2241.7 g/ha [7]: 90% | pest or weed control at 4483.4 g/ha [7]: 90% | pest or weed control at 4483.4 g/ha [8]: 100%

CNC(=O)Nc1nnc(SCC(C)=O)s1 [Example 54]
pest or weed control at 4483.4 g/ha [1]: 30% | pest or weed control at 4483.4 g/ha [2]: 30% | pest or weed control at 4483.4 g/ha [3]: 50% | pest or weed control at 2241.7 g/ha [4]: 60% | pest or weed control at 4483.4 g/ha [4]: 80% | pest or weed control at 4483.4 g/ha [5]: 100% | pest or weed control at 4483.4 g/ha [6]: 90% | pest or weed control at 2241.7 g/ha [7]: 60% | pest or weed control at 4483.4 g/ha [7]: 90% | pest or weed control at 4483.4 g/ha [8]: 30%
